Experimental data: paper PMC4624780 (PLoS ONE, 2015)
“Also recorded” adds a separate entry of the source. Square brackets hold non-standard residues; d marks the D form. Peptide text beside a SMILES is read from it. Ahx = NCCCCCC(=O)O

System: FMDV 3A protein homodimerization in BHK-21 cells
Assay type: cell-based, foot-and-mouth disease virus (FMDV)

| Compound | 3A dimerization (PLA fluorescent dots relative to cells incubated with no peptide) |
| --- | --- |
| CC[C@H](C)[C@H](NC(=O)[C@H](CC(C)C)NC(=O)[C@@H]1CCCN1C(=O)[C@H](CCCNC(=N)N)NC(=O)[C@H](CC(C)C)NC(=O)[C@H](CCC(=O)O)NC(=O)CCCCCNC(=O)[C@H](CCCNC(=N)N)NC(=O)[C@H](CCCNC(=N)N)NC(=O)[C@H](CCCNC(=N)N)NC(=O)[C@H](CCCNC(=N)N)NC(=O)[C@H](CCCNC(=N)N)NC(=O)[C@H](CCCNC(=N)N)NC(=O)[C@@H](N)CCCNC(=N)N)C(=O)N[C@@H](CCC(N)=O)C(=O)N[C@@H](CCC(N)=O)C(N)=O [Peptide R7-α2] (H-RRRRRRR[Ahx]ELRPLIQQ-NH2; N-terminus assumed) | lack of effect |
| RRRRRRRXFFEGMVHDS [Peptide R7-α1] | decreasing trend; also recorded: higher inhibitions |
